This note sets out measurements from patent US11787780B2 (CORCEPT THERAPEUTICS INCORPORATED, priority 2020, dated 2023).

In test [1] the test system is induction of TAT by dexamethasone in HepG2 cells. Nature of the test: Hep G2 TAT assay (inhibition of dexamethasone-induced TAT). The format is cell-based, human. The following applies: challenge of 100 nM dexamethasone, IC50 converted to Ki by Cheng and Prusoff equation.
Test [2] has as its target glucocorticoid receptor (GR) recombinant ligand binding domain (LBD) (Homo sapiens (Human), UniProt P04150). The test is described as follows: GR binding fluorescence polarisation (FP) assay. The following applies: displacement of fluorescently tagged ligand. As to the method:
Binding of test compounds to the glucocorticoid receptor (GR) is determined using a fluorescence polarisation (FP) assay utilising a recombinant ligand binding domain (LBD) of GR. The test compounds are assessed by their ability to displace a fluorescently tagged ligand and detection of the resulting decrease in fluorescence polarisation.
Background: In fluorescence polarisation assays a small probe gives low polarisation when free and higher when bound to something large.

Molecules are shown by their SMILES.

glucocorticoid receptor (GR) recombinant ligand binding domain (LBD), sequence (P04150 524-758): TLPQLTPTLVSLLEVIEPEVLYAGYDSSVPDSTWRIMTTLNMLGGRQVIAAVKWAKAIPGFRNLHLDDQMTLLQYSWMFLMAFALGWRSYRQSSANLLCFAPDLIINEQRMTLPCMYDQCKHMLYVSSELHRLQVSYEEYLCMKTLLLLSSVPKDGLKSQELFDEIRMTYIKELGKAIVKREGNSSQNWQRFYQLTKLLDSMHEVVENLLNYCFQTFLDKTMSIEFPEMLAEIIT

Molecule `C[C@@H]1CN(S(=O)(=O)c2cnn(C)c2)CCN1c1ccc2c(cnn2-c2ccc(F)cc2)c1` [Example 1, (R)-1-(4-fluorophenyl)-5-(2-methyl-4-((1-methyl-1H-pyrazol-4-yl)sulfonyl)piperazin-1-yl)-1H-indazole] had a Ki in test [1] of 0.594 µM. Also, in test [2], the IC50 was 0.93 µM.
Take `CCCn1cc(S(=O)(=O)N2CCC(c3cc4cnn(-c5ccc(F)cc5)c4cc3C)CC2)cn1` [Example 6, 1-(4-fluorophenyl)-6-methyl-5-(1-((1-propyl-1H-pyrazol-4-yl)sulfonyl)piperidin-4-yl)-1H-indazole]: the affinity in test [1], expressed as Ki, was 0.118 µM. Further, the IC50 in test [2] was determined as 0.148 µM.
Taken in the same sequence, the figures for `CCCn1cc(S(=O)(=O)N2CCC(c3ccc4c(cnn4-c4ccc(F)cc4)c3)C[C@H]2C)cn1` (stereo partly drawn) [Example 8, 1-(4-fluorophenyl)-5-((2R)-2-methyl-1-((1-propyl-1H-pyrazol-4-yl)sulfonyl)piperidin-4-yl)-1H-indazole] were 0.238 µM and 0.214 µM.
`CCCn1cc(S(=O)(=O)N2CC[C@H](c3ccc4c(cnn4-c4ccc(F)cc4)c3)C[C@H]2C)cn1` [Example 10, 1-(4-fluorophenyl)-5-((2R,4S)-2-methyl-1-((1-propyl-1H-pyrazol-4-yl)sulfonyl)piperidin-4-yl)-1H-indazole]: in test [1], the Ki worked out at 0.238 µM. In addition, the IC50 in test [2] came to 0.214 µM.
In test [1], `Cc1cc2c(cnn2-c2ccc(F)cc2)cc1C1(Cc2ccccc2)CCN(S(C)(=O)=O)C1` (centres unmarked) [Example 16, 5-(3-benzyl-1-(methylsulfonyl)pyrrolidin-3-yl)-1-(4-fluorophenyl)-6-methyl-1H-indazole] returned an inhibition constant Ki of 0.032 µM. The IC50 in test [2] was 0.008 µM.
On to `CCCn1cc(S(=O)(=O)N2CC[C@@](Cc3ccccc3)(c3cc4cnn(-c5ccc(F)cc5)c4cc3C)C2)cn1` [Example 17, (S)-5-(3-benzyl-1-((1-propyl-1H-pyrazol-4-yl)sulfonyl)pyrrolidin-3-yl)-1-(4-fluorophenyl)-6-methyl-1H-indazole], for which, in test [1], the affinity corresponds to a Ki of 0.023 µM. In test [2], the IC50 was 0.052 µM.
In turn, `CCCn1cc(S(=O)(=O)N2CC[C@](Cc3ccccc3)(c3cc4cnn(-c5ccc(F)cc5)c4cc3C)C2)cn1` [Example 18, (R)-5-(3-benzyl-1-((1-propyl-1H-pyrazol-4-yl)sulfonyl)pyrrolidin-3-yl)-1-(4-fluorophenyl)-6-methyl-1H-indazole] registered a Ki in test [1] of 0.009 µM. For the same molecule, in test [2], the IC50 was determined as 0.024 µM.
In test [1], `Cc1cc2c(cnn2-c2ccc(F)cc2)cc1C1(Cc2ccccc2)CCN(C)C1` (centres unmarked) [Example 20, 5-(3-benzyl-1-methylpyrrolidin-3-yl)-1-(4-fluorophenyl)-6-methyl-1H-indazole] displayed a Ki of 0.236 µM. Besides, the IC50 in test [2] was 0.008 µM.
`CCCn1cc(S(=O)(=O)N2CCC(COC)(c3cc4cnn(-c5ccc(F)cc5)c4cc3C)CC2)cn1` [Example 24, 1-(4-fluorophenyl)-5-(4-(methoxymethyl)-1-((1-propyl-1H-pyrazol-4-yl)sulfonyl)piperidin-4-yl)-6-methyl-1H-indazole] showed a Ki in test [1] of 1.51 µM. Moreover, in test [2], the IC50 worked out at 0.084 µM.
The molecule `CCCn1cc(S(=O)(=O)N2CCC(Cc3ccccc3)(c3cc4cnn(-c5ccc(F)cc5)c4cc3C)CC2)cn1` [Example 25, 5-(4-benzyl-1-((1-propyl-1H-pyrazol-4-yl)sulfonyl)piperidin-4-yl)-1-(4-fluorophenyl)-6-methyl-1H-indazole] showed a Ki in test [1] of 0.029 µM. Moreover, the IC50 in test [2] worked out at 0.067 µM.
`CNS(=O)(=O)C1CCN(c2cc3cnn(-c4ccc(F)cc4)c3cc2C)C1` (centres unmarked) [Example 28, 1-(1-(4-fluorophenyl)-6-methyl-1H-indazol-5-yl)-N-methylpyrrolidine-3-sulfonamide]: the Ki in test [1] came to 1.06 µM. The IC50 in test [2] was determined as 0.114 µM.
In turn, `CCCn1cc(NS(=O)(=O)C2CCN(c3cc4cnn(-c5ccc(F)cc5)c4cc3C)C2)cn1` (centres unmarked) [Example 29, 1-(1-(4-fluorophenyl)-6-methyl-1H-indazol-5-yl)-N-(1-propyl-1H-pyrazol-4-yl)pyrrolidine-3-sulfonamide] yielded a Ki in test [1] of 0.21 µM. For the same molecule, the IC50 in test [2] came out at 0.009 µM.
`Cc1cc2c(cnn2-c2ccc(F)cc2)cc1C1CCN(C(=O)NC(C)C)CC1` [Example 32, 4-(1-(4-fluorophenyl)-6-methyl-1H-indazol-5-yl)-N-isopropylpiperidine-1-carboxamide]: affinity in test [1] was put at a Ki of 0.4 µM. For the same molecule, the IC50 in test [2] worked out at 0.07 µM.
In test [1], `C[C@@H]1CN(c2ccc3c(cnn3-c3ccc(F)cc3)c2)CCN1S(=O)(=O)c1cnn(CC2CC2)c1` [Example 39] had a Ki of 0.242 µM. For the same molecule, the IC50 in test [2] turned out to be 0.081 µM.
Taken in the same sequence, the figures for `Cc1cc2c(cnn2-c2ccc(F)cc2)cc1N1CCN(S(=O)(=O)c2cnn(CC3CC3)c2)[C@H](C)C1` [Example 43] were 0.467 µM and 0.095 µM.
Consider `CCCn1cc(S(=O)(=O)N2CCN(c3ccc4c(cnn4-c4ccc(F)cc4)c3)CC23CC3)cn1` [Example 50], for which the Ki in test [1] worked out at 0.48 µM. Also, in test [2], the IC50 was found to be 0.027 µM.
On to `Cc1cc2c(cnn2-c2ccc(F)cc2)cc1N1CCN(S(C)(=O)=O)C2(CC2)C1` [Example 58], for which, in test [1], the Ki was found to be 0.321 µM. Further, in test [2], the IC50 worked out at 0.032 µM.
In test [1], `Cc1cc2c(cnn2-c2ccc(F)cc2)cc1N1CCN(S(=O)(=O)c2cnn(C)c2)C2(CC2)C1` [Example 59] returned a Ki of 0.246 µM. In test [2], the IC50 came to 0.019 µM.
In test [1], `CCCn1cc(S(=O)(=O)N2CCN(c3cc4cnn(-c5ccc(F)cc5)c4cc3C)CC23CC3)cn1` [Example 60] gave a Ki of 0.039 µM. Also, the IC50 in test [2] worked out at 0.008 µM.
Consider `CCCn1cc(S(=O)(=O)N2C[C@H](C)N(c3ccc4c(cnn4-c4ccc(F)cc4)c3)C[C@@H]2C)cn1` [Example 61], for which the Ki in test [1] worked out at 0.205 µM. Besides, the IC50 in test [2] was 0.025 µM.
As to `C[C@@H]1CN(c2ccc3c(cnn3-c3ccc(F)cc3)c2)CCN1S(=O)(=O)c1ccnn1C` [Example 65], the Ki in test [1] worked out at 1.48 µM. Further, the IC50 in test [2] was 0.334 µM.
Taken in the same sequence, the figures for `Cc1cc2c(cnn2-c2ccc(F)cc2)cc1N1CCN(S(=O)(=O)c2cnn(CC(F)(F)F)c2)C2(CC2)C1` [Example 67] were 0.033 µM and 0.018 µM.
`Cc1cc2c(cnn2-c2ccc(F)cc2)cc1N1CCN(S(=O)(=O)c2cnn(C(C)C)n2)C2(CC2)C1` [Example 68]: the affinity in test [1], expressed as Ki, was 0.03 µM. Besides, the IC50 in test [2] amounted to 0.035 µM.
`COc1cc2c(cnn2-c2ccc(F)cc2)cc1N1CCN(S(C)(=O)=O)C2(CC2)C1` [Example 70]: the Ki in test [1] was found to be 1.58 µM. In addition, the IC50 in test [2] is 0.028 µM.
Turning to `CCCn1cc(S(=O)(=O)N2C3CC2CN(c2cc4cnn(-c5ccc(F)cc5)c4cc2C)C3)cn1` [Example 73], in test [1], the affinity, expressed as Ki, was 0.306 µM. For the same molecule, the IC50 in test [2] stood at 0.151 µM.
`CCCn1cc(S(=O)(=O)N2CCN(c3cc4cnn(-c5cccc(C(=O)NC6CCOC6)c5)c4cc3C)CC23CC3)cn1` (centres unmarked) [Example 84]: the Ki in test [1] is 0.103 µM. In addition, the IC50 in test [2] came out at 0.01 µM.
Turning to `Cc1cc2c(cnn2-c2cccc(C(=O)NC3CCOC3)c2)cc1N1CCN(S(C)(=O)=O)C2(CC2)C1` (centres unmarked) [Example 85], the affinity in test [1], expressed as Ki, was 1.42 µM. Also, in test [2], the IC50 was found to be 0.163 µM.
As for `CCCn1cc(S(=O)(=O)N2CCN(c3cc4cnn(-c5ccc(F)cc5)c4cc3C)C(c3ccccc3)C2)cn1` (centres unmarked) [Example 86], affinity in test [1] was put at a Ki of 0.864 µM. Also, the IC50 in test [2] came to 0.162 µM.
Taken in the same sequence, the figures for `Cc1cc2c(cnn2-c2ccc(F)cc2)cc1N1CCC2CN(S(C)(=O)=O)CC21` (centres unmarked) [Example 90] were 0.343 µM and 0.045 µM.
In test [1], `CCCn1cc(S(=O)(=O)N2CC3CCN(c4cc5cnn(-c6ccc(F)cc6)c5cc4C)C3C2)cn1` (centres unmarked) [Example 91] showed a Ki of 0.336 µM. Also, the IC50 in test [2] was found to be 0.227 µM.
In the case of `CCCn1cc(S(=O)(=O)N2CCC3(CCN(c4cc5cnn(-c6ccc(F)cc6)c5cc4C)CC3)C2)cn1` [Example 94], in test [1], affinity was put at a Ki of 0.095 µM. For the same molecule, the concentration for half-maximal inhibition (IC50) in test [2] came out at 0.052 µM.
On to `Cc1cc2c(cnn2-c2ccc(F)cc2)cc1N1CCN(C(=O)c2cnn(C)c2)C2(CC2)C1` [Example 100], for which the affinity in test [1] corresponds to a Ki of 1.2 µM. Besides, in test [2], the IC50 was 0.233 µM.
Consider `Cc1cc2c(cnn2-c2ccc(F)cc2)cc1N1CCN(C(=O)c2ccc(F)c(F)c2)C2(CC2)C1` [Example 101], for which the affinity in test [1], expressed as Ki, was 0.823 µM. Further, the IC50 in test [2] amounted to 0.118 µM.
`Cc1cc2c(cnn2-c2ccc(F)cc2)cc1C1(/C=C/c2ccccc2)CCN(S(=O)(=O)c2cnn(C)c2)C1` (centres unmarked) [Example 342, (E)-1-(4-fluorophenyl)-6-methyl-5-(1-((1-methyl-1H-pyrazol-4-yl)sulfonyl)-3-styrylpyrrolidin-3-yl)-1H-indazole] yielded a Ki in test [1] of 0.11 µM.
On to `Cc1cc2c(cnn2-c2ccc(F)cc2)cc1C1(CCc2ccccc2)CCN(S(=O)(=O)c2cnn(C)c2)C1` (centres unmarked) [Example 343, 1-(4-fluorophenyl)-6-methyl-5-(1-((1-methyl-1H-pyrazol-4-yl)sulfonyl)-3-phenethylpyrrolidin-3-yl)-1H-indazole], for which the affinity in test [1], expressed as Ki, was 0.12 µM.
`Cc1cc2c(cnn2-c2ccc(F)cc2)cc1C1(COc2ccccc2)CCN(S(=O)(=O)c2cnn(C)c2)C1` (centres unmarked) [Example 344, 1-(4-fluorophenyl)-6-methyl-5-(1-((1-methyl-1H-pyrazol-4-yl)sulfonyl)-3-(phenoxymethyl)pyrrolidin-3-yl)-1H-indazole] showed a Ki in test [1] of 0.097 µM.
`Cc1cc2c(cnn2-c2ccc(F)cc2)cc1C1(C(=O)c2ccccc2)CCN(S(=O)(=O)c2cnn(C)c2)C1` (centres unmarked) [Example 345, (3-(1-(4-fluorophenyl)-6-methyl-1H-indazol-5-yl)-1-((1-methyl-1H-pyrazol-4-yl)sulfonyl)pyrrolidin-3-yl)(phenyl)methanone]: the Ki in test [1] turned out to be 0.22 µM.
In test [1], `Cc1cc2c(cnn2-c2ccc(F)cc2)cc1C1(CCCc2ccccc2)CCN(S(=O)(=O)c2cnn(C)c2)C1` (centres unmarked) [Example 346, 1-(4-fluorophenyl)-6-methyl-5-(1-((1-methyl-1H-pyrazol-4-yl)sulfonyl)-3-(3-phenylpropyl)pyrrolidin-3-yl)-1H-indazole] yielded a Ki of 0.14 µM.

What is called Ki is a dissociation constant, usually derived from enzyme kinetics or from competition with a known ligand. Broadly, the IC50 is the concentration that gives 50% inhibition.
